# Literature values, collected in US6495562B1, “Naphthamidine urokinase inhibitors” (Abbott Laboratories, priority 2000, dated 2002).
# How the values were obtained:
# angiogenesis = settings: J. Cell Biol. 1991, 115[3 Pt 2], 402a
# tumor metastasis = settings: Anticancer Res. 1988, 8, 1373-1376
structure (smiles),measurement,setting,value
N=C(N)NC(=O)c1nc(Cl)c(N)nc1N [Amiloride],inhibition of angiogenesis in vitro,angiogenesis,inhibit
same,inhibition of tumor metastasis in vivo,tumor metastasis,inhibit
